From paper PMC7503981, “Plant Nitrilase Homologues in Fungi: Phylogenetic and Functional Analysis with Focus on Nitrilases in Trametes versicolor and Agaricus bisporus” (Molecules, 2020)

What was measured:
NitAb = tested on: T1, NitAb; assay: spectrophotometric ammonia assay; […] substrate; type: biochemical, Agaricus bisporus; conditions: NLase (Asp + ammonia forming) activity; no asparaginase added for NLase activity; 50 mM Tris/HCl, 150 mM NaCl, pH 8.0, 30 °C; read-out: Substrate β-CA / Vmax [U mg^-1 rotein)] KM (mM) / NLase Activity ^2
T1 construct: catalytic tetrad E45, K157, E164, C195

NitTv1 = molecular target: T2, NitTv1 (Trametes versicolor, UniProt P9WEU6); assay: spectrophotometric ammonia assay; […] substrate; type: biochemical; conditions: read-out: Substrate β-CA / Vmax [U mg^-1 rotein)] KM (mM) / NLase Activity ^2; NLase (Asp + ammonia forming) activity; no asparaginase added for NLase activity; 50 mM Tris/HCl, 150 mM NaCl, pH 8.0, 30 °C
T2 construct: gene nit; catalytic tetrad E46, K133, E140, C178
T2 sequence (P9WEU6 whole entry): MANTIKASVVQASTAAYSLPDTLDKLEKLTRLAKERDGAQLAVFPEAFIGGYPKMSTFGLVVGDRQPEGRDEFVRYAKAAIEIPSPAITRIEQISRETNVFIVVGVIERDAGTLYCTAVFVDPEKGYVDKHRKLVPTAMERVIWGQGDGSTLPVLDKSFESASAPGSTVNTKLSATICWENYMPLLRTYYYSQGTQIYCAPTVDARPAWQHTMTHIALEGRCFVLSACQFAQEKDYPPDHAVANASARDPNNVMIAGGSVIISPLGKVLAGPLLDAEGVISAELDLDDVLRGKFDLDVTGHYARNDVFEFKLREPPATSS

Structure (SMILES): N#CC[C@H](N)C(=O)O [β-CA, β-cyano-L-alanine]
- Km (NitAb): 7.38 ± 1.4 mM
- Km (NitTv1): 7.72 ± 1.82 mM
